Measured values: patent US20100093767A1, “Mitotic Kinase Inhibitors” (TAKEDA SAN DIEGO, INC., priority 2004, published 2010)

Molecular target: T1, KSP (HuEg5) (Homo sapiens, UniProt P52732)
T1 construct: I.D. No. 1 corresponds to residues 1-359 with the C-terminal 6-histidine tag; 6-histidine tag (C); made in house; host or cells: E. coli Tuner (DE3)
T1 sequence (P52732 with tags, fused parts or gaps): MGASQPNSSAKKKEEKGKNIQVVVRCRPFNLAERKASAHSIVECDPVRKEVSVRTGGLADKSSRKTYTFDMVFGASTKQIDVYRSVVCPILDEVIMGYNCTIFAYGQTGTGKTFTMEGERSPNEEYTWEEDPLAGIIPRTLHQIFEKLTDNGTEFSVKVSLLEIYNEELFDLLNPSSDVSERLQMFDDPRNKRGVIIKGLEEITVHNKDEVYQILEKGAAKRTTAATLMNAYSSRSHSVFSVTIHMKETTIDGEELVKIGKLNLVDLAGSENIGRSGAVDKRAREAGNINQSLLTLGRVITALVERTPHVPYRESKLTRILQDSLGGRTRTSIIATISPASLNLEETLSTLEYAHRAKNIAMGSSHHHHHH
Test: in vitro enzymatic KSP (HuEg5) ATPase activity assay
Type: biochemical
Conditions: reference compounds; coupled PK/LDH ATPase assay, 25 μM ATP, 12 nM enzyme, 60 minutes at room temperature
Description: The activity of compounds as KSP (HuEg5) inhibitors may be assayed in vitro, in vivo, or in a cell line. Further, compounds according to the present invention may be screened for activity against one or more kinesins. Provided below is the in vitro enzymatic KSP (HuEg5) ATPase activity assay for activity against KSP (HuEg5).
KSP (Eg5) DNA encoding residues 1-359 of the Kinesin motor domain sequence of the human enzyme may be amplified by PCR and cloned into the NcoI site of pET15b (Novagen), which incorporates a 6-histidine tag at the C-terminus. SEQ. I.D. No. 1 corresponds to residues 1-359 with the C-terminal 6-histidine tag and SEQ. I.D. No. 2 is the DNA sequence that was used to encode SEQ. […]
Recombinant protein may be isolated from cellular extracts by passage over ProBond resin (Invitrogen), and dialysis against buffer containing 25 mM Tris pH 7.6, 50 mM NaCl, 0.25 mM TCEP. The purity of KSP (Eg5) proteins may be determined on denaturing SDS-PAGE gel. […]
The inhibitory properties of compounds relative to KSP may be determined using a clear 384-well plate format under the following reaction conditions: 20 mM K-PIPES pH 6.8, 2 mM MgCl2, 1 mM EGTA, 1.5 mM KCl, 1 mM DTT, 0.01% Brij35, 25 μM ATP, 1 mM phosphoenolpyruvate (PEP), 0.4 mM NADH, 25 nM microtubules (MT), 1 μM Taxol, 30 units/ml rabbit muscle pyruvate kinase (PK), 30 units/ml rabbit muscle lactic dehydrogenase (LDH), and 2% DMSO. […]

Row | Structure (SMILES) | IC50 [µM]
1 | CCCCN1C(=O)C2Cc3c([nH]c4ccccc34)C(c3cccc(O)c3)N2C1=O (centres unmarked) [HR22C16] | 1.5
2 | CCOC(=O)C1=C(C)NC(=S)NC1c1cccc(O)c1 (centres unmarked) [Monastrol] | 45
